pEC50: −log10 of the molar value.
These compounds were tested against human GPR43 (Homo sapiens (Human), UniProt O15552) (assay: Ca-Flux functional assay: determination of agonist/positive allosteric modulator (PAM) activity). Conditions: CHO-K1 Gα16 cells stably expressing human GPR43; compound added with EC20 sodium acetate; intracellular Ca2+ by FLIPR; does not distinguish agonist from PAM.
Type: cell-based
Summary of the method: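 Agonist or PAM activity read as intracellular Ca2+ rise by FLIPR after adding compound plus EC20 acetate, acetate EC20 set from a prior curve. Cells: CHO-K1 Gα16 with stable human GPR43. EC50 from ten-point half-log curves starting 10 μM.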

Sequence of human GPR43 (O15552 whole entry): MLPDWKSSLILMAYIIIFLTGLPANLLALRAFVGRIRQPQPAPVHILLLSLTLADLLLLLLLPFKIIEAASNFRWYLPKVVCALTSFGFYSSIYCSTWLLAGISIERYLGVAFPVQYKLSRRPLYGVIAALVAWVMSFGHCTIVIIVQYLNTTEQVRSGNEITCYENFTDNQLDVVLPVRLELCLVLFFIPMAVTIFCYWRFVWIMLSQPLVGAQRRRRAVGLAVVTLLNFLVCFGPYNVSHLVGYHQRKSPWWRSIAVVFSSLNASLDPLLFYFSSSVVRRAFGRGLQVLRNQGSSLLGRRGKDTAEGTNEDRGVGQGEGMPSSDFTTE

Structure (SMILES) | pEC50
Nc1[nH]c2c(N3CCOC4(CC4)C3)ncnc2c1S(=O)(=O)c1ccccc1 [Example 151, 7-(benzenesulfonyl)-4-{4-oxa-7-azaspiro[2.5]octan-7-yl}-5H-pyrrolo[3,2-d]pyrimidin-6-amine] | 7.64
Cc1nc(OC2CCC(F)(F)CC2)c2[nH]c(N)c(S(=O)(=O)c3ccccc3)c2n1 [Example 254, 7-(benzenesulfonyl)-4-[(4,4-difluorocyclohexyl)oxy]-2-methyl-5H-pyrrolo[3,2-d]pyrimidin-6-amine] | 7.54
C=C(C)c1nc(C)nc2c(S(=O)(=O)c3ccccc3F)c(N)[nH]c12 [Example 224, 7-(2-fluorobenzenesulfonyl)-2-methyl-4-(prop-1-en-2-yl)-5H-pyrrolo[3,2-d]pyrimidin-6-amine] | 7.07
Nc1[nH]c2c(C3CCCCC3)ncnc2c1S(=O)(=O)c1ccc(OC(F)F)cc1 [Example 36, 4-cyclohexyl-7-{[4-(difluoromethoxy)benzene]sulfonyl}-5H-pyrrolo[3,2-d]pyrimidin-6-amine] | 7.06
Nc1[nH]c2c(OCC3CCCCO3)ncnc2c1S(=O)(=O)c1ccccc1 (centres unmarked) [Example 156, 7-(benzenesulfonyl)-4-(oxan-2-ylmethoxy)-5H-pyrrolo[3,2-d]pyrimidin-6-amine] | 5.52
Nc1[nH]c2c(OCc3ccccc3)ncnc2c1S(=O)(=O)c1ccccc1 [Example 168, 7-(benzenesulfonyl)-4-(benzyloxy)-5H-pyrrolo[3,2-d]pyrimidin-6-amine] | 6.87
Cc1nc(N2CCO[C@@H](CF)C2)c2[nH]c(N)c(S(=O)(=O)c3ccccc3F)c2n1 [Example 299, 7-(2-fluorobenzenesulfonyl)-4-[(2R)-2-(fluoromethyl)morpholin-4-yl]-2-methyl-5H-pyrrolo[3,2-d]pyrimidin-6-amine] | 9.00
CC1CC1COc1ncnc2c(S(=O)(=O)c3ccccc3)c(N)[nH]c12 (centres unmarked) [Example 172, 7-(benzenesulfonyl)-4-[(2-methylcyclopropyl)methoxy]-5H-pyrrolo[3,2-d]pyrimidin-6-amine] | 7.11
Cc1nc(N2CCOC3(CCC3)C2)c2[nH]c(N)c(S(=O)(=O)c3ccccc3F)c2n1 [Example 237, 7-(2-fluorobenzenesulfonyl)-2-methyl-4-{5-oxa-8-azaspiro[3.5]nonan-8-yl}-5H-pyrrolo[3,2-d]pyrimidin-6-amine] | 8.10
Cc1nc(N2CCC3(CC2)CC3)c2[nH]c(N)c(S(=O)(=O)c3ccccc3F)c2n1 [Example 214, 4-{6-azaspiro[2.5]octan-6-yl}-7-(2-fluorobenzenesulfonyl)-2-methyl-5H-pyrrolo[3,2-d]pyrimidin-6-amine] | 8.05
Cc1nc(N2CCOC(C)C2)c2[nH]c(N)c(S(=O)(=O)c3cc(F)ccc3F)c2n1 (centres unmarked) [Example 229, 7-(2,5-difluorobenzenesulfonyl)-2-methyl-4-(2-methylmorpholin-4-yl)-5H-pyrrolo[3,2-d]pyrimidin-6-amine] | 8.15
CC1CCCCN1c1ncnc2c(S(=O)(=O)c3ccccc3)c(N)[nH]c12 (centres unmarked) [Example 69, 7-(benzenesulfonyl)-4-(2-methylpiperidin-1-yl)-5H-pyrrolo[3,2-d]pyrimidin-6-amine] | 7.31
Nc1[nH]c2c(OCC3CCCCC3)ncnc2c1S(=O)(=O)c1ccccc1 [Example 165, 7-(benzenesulfonyl)-4-(cyclohexylmethoxy)-5H-pyrrolo[3,2-d]pyrimidin-6-amine] | 7.14
Cc1nc(N2CCOC(C(F)(F)F)C2)c2[nH]c(N)c(S(=O)(=O)c3ccccc3)c2n1 (centres unmarked) [Example 225, 7-(benzenesulfonyl)-2-methyl-4-[2-(trifluoromethyl)morpholin-4-yl]-5H-pyrrolo[3,2-d]pyrimidin-6-amine] | 7.85
Nc1[nH]c2c(C3=CCCCC3)ncnc2c1Sc1ccccc1 [Example 135, 4-(cyclohex-1-en-1-yl)-7-(phenylsulfanyl)-5H-pyrrolo[3,2-d]pyrimidin-6-amine] | 6.63
CC(Oc1ncnc2c(S(=O)(=O)c3ccccc3)c(N)[nH]c12)C1CCCC1 (centres unmarked) [Example 212, 7-(benzenesulfonyl)-4-(1-cyclopentylethoxy)-5H-pyrrolo[3,2-d]pyrimidin-6-amine] | 7.96
Cc1nc(OC2CCC2)c2[nH]c(N)c(S(=O)(=O)c3ccccc3F)c2n1 [Example 260, 4-cyclobutoxy-7-(2-fluorobenzenesulfonyl)-2-methyl-5H-pyrrolo[3,2-d]pyrimidin-6-amine] | 8.00
Nc1[nH]c2c(N3CCOCC3)ncnc2c1S(=O)(=O)c1ccccc1 [Example 6, 7-(benzenesulfonyl)-4-(morpholin-4-yl)-5H-pyrrolo[3,2-d]pyrimidin-6-amine] | 6.56
Cc1nc(N2CCCC(C)C2)c2[nH]c(N)c(S(=O)(=O)c3cccc(F)c3)c2n1 (centres unmarked) [Example 198, 7-(3-fluorobenzenesulfonyl)-2-methyl-4-(3-methylpiperidin-1-yl)-5H-pyrrolo[3,2-d]pyrimidin-6-amine] | 7.51

Structure (SMILES) | pEC50
C[C@@H]1CN(c2ncnc3c(S(=O)(=O)c4ccccc4)c(N)[nH]c23)C[C@H](C)O1 [Example 75, 7-(benzenesulfonyl)-4-[(2R,6S)-2,6-dimethylmorpholin-4-yl]-5H-pyrrolo[3,2-d]pyrimidin-6-amine] | 7.85
Nc1[nH]c2c(N3CCCC(F)(F)C3)ncnc2c1S(=O)(=O)c1ccccc1 [Example 34, 7-(benzenesulfonyl)-4-(3,3-difluoropiperidin-1-yl)-5H-pyrrolo[3,2-d]pyrimidin-6-amine] | 7.05
CCN(CC)c1ncnc2c(S(=O)(=O)c3ccccc3)c(N)[nH]c12 [Example 94, 7-(benzenesulfonyl)-4-N,4-N-diethyl-5H-pyrrolo[3,2-d]pyrimidine-4,6-diamine] | 7.21
Nc1[nH]c2c(OCC3CCCOC3)ncnc2c1S(=O)(=O)c1ccccc1 (centres unmarked) [Example 157, 7-(benzenesulfonyl)-4-(oxan-3-ylmethoxy)-5H-pyrrolo[3,2-d]pyrimidin-6-amine] | 5.80
Nc1[nH]c2c(C3=CCCCC3)ncnc2c1S(=O)(=O)c1ccccn1 [Example 20, 4-(cyclohex-1-en-1-yl)-7-(pyridine-2-sulfonyl)-5H-pyrrolo[3,2-d]pyrimidin-6-amine] | 6.50
CC(C)CC1CN(c2ncnc3c(S(=O)(=O)c4ccccc4)c(N)[nH]c23)CCO1 (centres unmarked) [Example 101, 7-(benzenesulfonyl)-4-[2-(2-methylpropyl)morpholin-4-yl]-5H-pyrrolo[3,2-d]pyrimidin-6-amine] | 7.51
Cc1nc(OC2CCOC(C)(C)C2)c2[nH]c(N)c(S(=O)(=O)c3ccccc3F)c2n1 (centres unmarked) [Example 273, -[(2,2-dimethyloxan-4-yl)oxy]-7-(2-fluorobenzenesulfonyl)-2-methyl-5H-pyrrolo[3,2-d]pyrimidin-6-amine] | 7.20
Nc1[nH]c2c(Br)cncc2c1S(=O)(=O)c1ccccc1 [Example 77, 3-(benzenesulfonyl)-7-bromo-1H-pyrrolo[3,2-c]pyridin-2-amine] | 6.20
COc1ccc(S(=O)(=O)c2c(N)[nH]c3c(N4CCOC(C)(C)C4)ncnc23)cc1 [Example 129, 4-(2,2-dimethylmorpholin-4-yl)-7-(4-methoxybenzenesulfonyl)-5H-pyrrolo[3,2-d]pyrimidin-6-amine] | 7.48
COc1nc(N2CCOC(C)C2)c2[nH]c(N)c(S(=O)(=O)c3ccccc3F)c2n1 (centres unmarked) [Example 271, 7-(2-fluorobenzenesulfonyl)-2-methoxy-4-(2-methylmorpholin-4-yl)-5H-pyrrolo[3,2-d]pyrimidin-6-amine] | 8.10
CSc1nc(N2CCOC(C)C2)c2[nH]c(N)c(S(=O)(=O)c3ccccc3)c2n1 (centres unmarked) [Example 238, 7-(benzenesulfonyl)-4-(2-methylmorpholin-4-yl)-2-(methylsulfanyl)-5H-pyrrolo[3,2-d]pyrimidin-6-amine] | 7.74
Cc1csc(COc2ncnc3c(S(=O)(=O)c4ccccc4)c(N)[nH]c23)n1 [Example 161, 7-(benzenesulfonyl)-4-[(4-methyl-1,3-thiazol-2-yl)methoxy]-5H-pyrrolo[3,2-d]pyrimidin-6-amine] | 5.85
Nc1[nH]c2c(OCC3CCOCC3)ncnc2c1S(=O)(=O)c1ccccc1 [Example 169, 7-(benzenesulfonyl)-4-(oxan-4-ylmethoxy)-5H-pyrrolo[3,2-d]pyrimidin-6-amine] | 5.72
Nc1[nH]c2c(O[C@@H]3CCOC3)ncnc2c1S(=O)(=O)c1ccccc1 [Example 159, 7-(benzenesulfonyl)-4-[(3R)-oxolan-3-yloxy]-5H-pyrrolo[3,2-d]pyrimidin-6-amine] | 5.28
Nc1[nH]c2c(C3=CCCCC3)nccc2c1S(=O)(=O)c1ccccc1 [Example 18, 3-(benzenesulfonyl)-7-(cyclohex-1-en-1-yl)-1H-pyrrolo[2,3-c]pyridin-2-amine] | 6.28
CC1CN(c2ncnc3c(S(=O)(=O)c4ccc(Cl)c(F)c4)c(N)[nH]c23)CCO1 (centres unmarked) [Example 143, 7-(4-chloro-3-fluorobenzenesulfonyl)-4-(2-methylmorpholin-4-yl)-5H-pyrrolo[3,2-d]pyrimidin-6-amine] | 7.46
Cc1nc(N2CCOC3(CCCC3)C2)c2[nH]c(N)c(S(=O)(=O)c3ccccc3F)c2n1 [Example 177, 7-(2-fluorobenzenesulfonyl)-2-methyl-4-{6-oxa-9-azaspiro[4.5]decan-9-yl}-5H-pyrrolo[3,2-d]pyrimidin-6-amine] | 8.22
CC1CN(c2nc(C(F)(F)F)nc3c(S(=O)(=O)c4cccc(F)c4)c(N)[nH]c23)CCO1 (centres unmarked) [Example 265, 7-(3-fluorobenzenesulfonyl)-4-(2-methylmorpholin-4-yl)-2-(trifluoromethyl)-5H-pyrrolo[3,2-d]pyrimidin-6-amine] | 7.17
COc1ccc(S(=O)(=O)c2c(N)[nH]c3c(N4CCO[C@H](C(F)(F)F)C4)nc(C)nc23)c(F)c1 [Example 282, 7-(2-fluoro-4-methoxybenzenesulfonyl)-2-methyl-4-[(2S)-2-(trifluoromethyl)morpholin-4-yl]-5H-pyrrolo[3,2-d]pyrimidin-6-amine] | 9.00

From US10059713B2 (Takeda Pharmaceutical Company Limited, priority 2014, dated 2018)
